For series [1], the target named is MM.1S, B Lymphoblast (multiple myeloma). Put plainly: Viability assay (MTT, Alamar Blue, hexosaminidase), 72 h. It is filed as cell-based. Here is the method:
MM.1S, B Lymphoblast (multiple myeloma), ATCC: CRL-2974
(§1) Cell lines A549, MCF-7 and RAMOS were cultured in incubator under CO2 (6%) at 37° C. in DMEM high glucose (Dulbecco's Modified Eagle Solution, Gibco-BRL 31966-21) medium with 10% fetal bovine serum inactivated (FBS) (Gibco-BRL 10106-169). Cell lines HL-60 and MM.1S were cultured in incubator at 37° C. in RPMI-1640 (Sigma R8758) medium with 10% of fetal bovine serum inactivated (FBS) and 2 mM glutamine (Sigma G7513). Cell lines BJ were cultured in incubator under CO2 (6%) at 37° C. in Eagle's Minimum Essential Medium (Sigma, M-2279) with 10% fetal bovine serum inactivated (FBS) (Gibco-BRL 10106-169).
(§2) During the amplification step and the assays adherent cells were rinsed with DPBS (Dulbecco's Phosphate Buffered Saline, Sigma D1283) three times and afterward treated for 5 minutes with trypsin ([…]) (Gibco-BRL, 15400054) in solution of DPBS at 37° C., and, once detached, transferred in the culturing medium. No-adherent cells were centrifuged and transferred in the culturing medium. Cells were counted in a Neubauer chamber after labelling with Tripan-Blue.
(§3) A549, MCF-7 and JB cells were seeded at a density of 5000 cells/well and HL-60, MM.1S and Ramos at 10000 cells/well in 100 μl of medium in 96 well plates. After 24 h, the compounds to be tested were added to calculate the dose/response curve at the starting concentration of 100 μM with serial dilutions (1:1). Controls are the untreated cells. Each experiment was performed in triplicate.
(§4) Cells were incubated during 72 h in incubator under CO2 atmosphere at 37° C. Cell viability was measured by means of MTT (3-(4,5-dimethylthiazol-2-yl)-2.5-diphenyltetrazolium bromide) assay, Alamar Blue® (Biosource DAL1100) and Hexosaminidase activity test, consecutively, following manufacturer instructions.
(§5) MTT: 1. Stock solution of MTT (475989 Calbiochem) was 5 mg/ml in PBS 1×. As negative control (experiment noise) 3 wells were treated with 20 μl/well of a solution of SDS 10% in H2O. The same control was used for Alamar Blue/Hexosaminidase. 10 μl/well of MTT solution were added and the plate was incubated for 3-4 hr. The medium was discarded and 100 μl of extracting buffer (PBS 1×, 15% SDS, 50% […] N,N-Dimethylformamide, pH 4.7) were added to each well. Plates were incubated for 16 h at room temperature under orbital shaking. Absorbance at 570 nm was finally measured.
(§6) Alamar Blue: 10 μl Alamar Blue solution was added to each well and the plates were incubated for […] in the incubator. Fluorescence ratio at 535/590 (excitation/emission) was measured in Cytofluor (Millipore) fluorimeter. Blank control was determined by lysis of untreated cells with con 2% of Triton X100, right before adding Alamar Blue solution.
(§7) Hexosaminidase activity test: after Alamar Blue lecture, medium was discarded and plates were rinsed once with PBS. 60 μl hexosaminidase substrate (p-nitrophenol-N-acetyl-beta-D-glucosamide 7.5 mM [Sigma N-9376], sodium citrate 0.1 M, pH 5.0, 0.25% Triton X-100) was added to each well and the plates were incubated at 37° C. for 2-5 h, according to the cell type (hexosaminidase activity changes according to the cell type). […] Blank control was the same as described before.
(§8) Data analysis was performed calculating the percentage of cell viability normalized vs. the values of negative control, which was considered equal to 100%. The dose/response curve was fitted through the sigmoidal equation dose-response (variable slope) and the EC50 values were calculated as follow: Y=Bottom+(Top−Bottom)/(1+10^{[(Log EC50−X)*HillSlope]},
Background: Alamar Blue is a resazurin reagent that responds to reducing activity.

Series [2] addresses HL-60, promyeloblast (acute myelocytic leukemia, AML). Described as above. It is filed as cell-based. How it is done:
HL-60, promyeloblast (acute myelocytic leukemia, AML), ECACC: 98070106
as §1, §2, §3, §4, §5, §6, §7, §8

The target of series [3] is RAMOS, B lymphocyte (Burkitt's Lymphoma). The series is described as above. It is filed as cell-based. Here is the method:
RAMOS, B lymphocyte (Burkitt's Lymphoma), ATCC: CRL-1596
as §1, §2, §3, §4, §5, §6, §7, §8

Another series relates to several tumor cell lines. Put plainly: Anticancer activity in viability assay, stated in words. It is filed as cell-based. How it is done: as §3, §4, §8
Series [4] has as its target MCF-7, epithelial (breast cancer). As to the kind of experiment: Viability assay (MTT, Alamar Blue, hexosaminidase), 72 h. It is filed as cell-based. Here is the method:
MCF-7, epithelial (breast cancer), ECACC: 86012803
as §1, §2, §3, §4, §5, §6, §7, §8

For series [5], the target named is A549, epithelial (lung cancer). The series is described as above. It counts as cell-based. How it is done:
A549, epithelial (lung cancer), ATCC:CCL-185
as §1, §2, §3, §4, §5, §6, §7, §8

Series [6] can be described thus: Stability test in human plasma, 37 °C, UPLC-MS/MS. It is filed as in vitro ADME. Here is the method: Reagents: ACN LC-MS (Scharlab AC03712500); MeOH LC-MS (Scharlab ME03262500); IPA LC-MS (Scharlab AL03262500); HCOOH (Carlo Erba 405792); DPBS (Lonza BE17-512F); human plasma with EDTAK2 as anticoagulant were provided by Centre d'Investigació de Medicaments located at the Hospital de la Santa Creu i Sant Pau, C/. Sant Antoni Maria Claret 167, Pavelló Sant Frederic, 08025 Barcelona. Plasma was extracted from a healthy patient on 1 Feb. 2015. It was kept at −20° C. until the experiment day.
A calibration curve of eight non-zero concentration levels (from P1 to P8) was prepared in a concentration interval from 5 to 100 μM for S09. One blank sample of DPBS was also included. All calibration samples were analysed in duplicate. Calibration standard samples were prepared by addition of 30 μL of each calibration solution (from P1 to P8 and blank) to 270 μL of human plasma. Samples for incubation were prepared adding 15 μL of 1 mM solution of S09 to 135 μL of human plasma (final concentration 100 μM). 15 samples were prepared. Samples were incubated at 37° C. for 0, 0.5, 2, 6 and 24 h (three replicates were prepared for each incubation time).
An aliquot of 125 μL human plasma sample (blank, calibration standards and incubation samples) were processed using Sirocco™ Protein Precipitation plates (Waters). 375 μL of ACN were added to each well of the Sirocco plate. Then the samples were filtered applying vacuum (8-10 mm Hg) for about 5 minutes. The filtrates were evaporated under a steady stream of nitrogen (40° C.) and reconstituted with 150 μL of MeOH:H2O 0.1% HCOOH for analysis. Samples were analyzed by UPLC(ACQUITY Ultra Performance LC-MS/MS(API 3000).
UPLC conditions (X-Bridge C18 column; Pump A: H2O with 0.1% formic acid; Pump B Acetonitrile with 0.1% formic acid) using a linear gradient 5%-95% of B in 8 minutes (R. T.=5.95). The mean (out of 3 experiments) of the normalized percentage integrated area corresponding to the peak of S09 at different time are reported in table 11 below.

Numbered stars: 1 amine (or outer) side, 2 acyl side, 3 side chain; on linkers, the order of the positions; unused ones are H or OH. Bridge positions count the residues as written; N and C are the ends. Square brackets hold non-standard residues; d marks the D form. Ends that are not written are not given here. Peptide text beside a SMILES is read from it. ξ: configuration not given here. ξαMeNle(6-ylidene) = CC(CCCC=[*:3])(N[*:1])C(=O)[*:2]; X1 = CC(CCCCCCC=[*:3])(N[*:1])C(=O)[*:2]; Suc = O=C(CCC(=O)[*:2])[*:1]

`CC(C)C[C@H](NC(=O)[C@H](C)NC(=O)[C@H](C)NC(=O)[C@H](Cc1ccccc1)NC(=O)[C@H](CO)NC(=O)[C@H](CCCNC(=N)N)NC(=O)[C@H](CCCCN)NC(=O)[C@H](CC(C)C)NC(=O)[C@H](CCC(=O)O)NC(=O)[C@H](CC(N)=O)NC(=O)[C@H](CCCNC(=N)N)NC(=O)[C@H](CCCNC(=N)N)NC(=O)[C@H](CCC(N)=O)NC(=O)[C@H](CCCNC(=N)N)NC(=O)CCC(=O)O)C(=O)N[C@@H](CCCNC(=N)N)C(=O)N[C@@H](CC(=O)O)C(=O)N[C@@H](CCC(N)=O)C(=O)O` [IDP-L12] (Suc-RQRRNELKRSFAALRDQ-OH; N-terminus and C-terminus assumed): the EC50 in series [1], in series [2], in series [3] and in series [4] was more than 100 µM in each case. Also, in the series with several tumor cell lines, the “anticancer activity (active / inactive)” value is “inactive”.
`CC(C)C[C@H](NC(=O)[C@H](C)NC(=O)[C@H](C)NC(=O)[C@H](Cc1ccccc1)NC(=O)[C@H](C)NC(=O)[C@H](CCCNC(=N)N)NC(=O)[C@H](CCCCN)NC(=O)[C@H](CC(C)C)NC(=O)[C@H](CCC(=O)O)NC(=O)[C@H](CC(N)=O)NC(=O)[C@H](CCCNC(=N)N)NC(=O)[C@H](CCCNC(=N)N)NC(=O)[C@H](CCC(N)=O)NC(=O)[C@H](CCCNC(=N)N)NC(=O)CCC(=O)O)C(=O)N[C@@H](CCCNC(=N)N)C(=O)N[C@@H](CC(=O)O)C(=O)N[C@@H](CCC(N)=O)C(=O)O` [IDP-L13, RQRRNELKRAFAALRDQ] (Suc-RQRRNELKRAFAALRDQ-OH; N-terminus and C-terminus assumed): the EC50 in series [1], in series [2], in series [3] and in series [4] was more than 100 µM throughout. Further, the “anticancer activity (active / inactive)” value in the series on several tumor cell lines was “inactive”.
On to `CC[C@H](C)[C@H](NC(=O)[C@H](Cc1ccc(O)cc1)NC(=O)[C@H](C)NC(=O)[C@H](CC(C)C)NC(=O)[C@H](C)NC(=O)[C@H](CCCCN)NC(=O)[C@H](CCCCN)NC(=O)[C@H](Cc1ccccc1)NC(=O)[C@@H](NC(=O)[C@@H](NC(=O)[C@@H](NC(=O)[C@H](CCCCN)NC(=O)[C@@H]1CCCN1)[C@@H](C)CC)C(C)C)[C@@H](C)CC)C(=O)O` [IDP-L14α, Pro-Lys-Val-Val-Ile-Leu-Lys-Lys-Ala-Thr-Ala-Tyr-Ile], for which the EC50 in series [1], in series [2], in series [5], in series [3] and in series [4] was more than 100 µM in each case. The “anticancer activity (active / inactive)” value in the series on several tumor cell lines is “inactive”.
Turning to `CC[C@H](C)[C@H](NC(=O)[C@H](Cc1ccc(O)cc1)NC(=O)[C@H](C)NC(=O)C1(C)CCCC=CCCCCCCC(C)(NC(=O)[C@H](CCCCN)NC(=O)[C@@H]2CCCN2C(=O)[C@H](C)N)C(=O)N[C@@H](C(C)C)C(=O)N[C@@H]([C@@H](C)CC)C(=O)N[C@@H](CC(C)C)C(=O)N[C@@H](CCCCN)C(=O)N[C@@H](CCCCN)C(=O)N[C@@H](C)C(=O)N1)C(=O)N[C@@H](CC(C)C)C(=O)N[C@@H](CO)C(=O)O` (some centres unmarked) [IDP-S09, APKXVILKKAXAYILS-OH] (H-APK[X1]VILKKA[ξαMeNle(6-ylidene)]AYILS-OH; staple 4-11; N-terminus assumed), the “% Remaining of active metabolyte (mean)” value in series [6] (100 μM, incubation time 0 h) worked out at 0%; in series [6] (100 μM, incubation time 2 h), 0%; in series [6] (100 μM, incubation time 6 h) it was 0%; in series [6] (100 μM, incubation time 24 h) it was 0%. Besides, the “% Remaining of starting compound (mean)” value in series [6] (100 μM, incubation time 0 h) is 100%. The fraction remaining at 2 h, 100 μM in series [6] (human plasma (EDTA-K2), incubation time 2 h, read-out: % Remaining of starting compound (mean)) amounted to 106 ± 4.9%. In addition, in series [6] (human plasma (EDTA-K2), incubation time 6 h, read-out: % Remaining of starting compound (mean)), the share remaining at 6 h, 100 μM turned out to be 90 ± 16%. Moreover, in series [6] (human plasma (EDTA-K2), incubation time 24 h, read-out: % Remaining of starting compound (mean)), the share remaining at 24 h, 100 μM turned out to be 97 ± 10%.
In the case of “NELKRSFFALRDQ-OH [IDP-L10, NELKRSFFALRDQ]”, the EC50 in series [1], in series [2], in series [3] and in series [4] was more than 100 µM in each case. Besides, the “anticancer activity (active / inactive)” value in the series on several tumor cell lines was “inactive”.
